US4405743A, “Pyrazolylpyrimidine derivatives” (Hokko Chemical Industry Co., Ltd., priority 1981, dated 1983)
Like-named read-outs stand apart in the source and are kept apart here.

Experiments:
[1] = tested on: rice plant; details: blast prevention test, 200 ppm
[2] = tested on: Pyricularia oryzae; type: in vivo, Pyricularia oryzae on rice plant (variety: Asahi); details: rice blast, curative treatment; sprayed liquid 200 ppm; 5 days after spraying
[3] = tested on: Sphaerotheca friliginea; experiment: Effect of controlling cucumber powdery mildew, Experimental Example 4; type: in vivo; details: sprayed liquid 200 ppm, 10 days after inoculation
Experimental: 10 ml of each of test liquids diluted to a predetermined concentration was sprayed over seedlings of a cucumber plant (variety: Sagami Hanpaku) grown up to the first leaf stage which has been soil cultured in an unglazed pot with a diameter of 9 cm in a green house. After allowing to stand overnight, the seedlings were sprayed for inoculation with a spore suspension of Sphaerotheca friliginea. Ten days after the inoculation, the rate of a lesion area (%) was checked and a control value was evaluated from the following equation. The degree of chemical injury against a cucumber plant was determined in the same manner as in Experimental Example.

[4] = tested on: cucumber plant; details: in vivo
[5] = tested on: Pyricularia oryzae; type: in vivo, Pyricularia oryzae on rice plant (variety: Asahi); details: rice blast, prevention; 200 ppm; 5 days after inoculation
[6] = tested on: rice plant; details: in vivo
[7] = tested on: Cochliobolus miyabeanus; experiment: Effect of controlling rice brown spot, Experimental Example 3; type: in vivo, Cochliobolus miyabeanus on rice plant (variety: Asahi); details: sprayed liquid 500 ppm, 5 days after inoculation
[8] = tested on: rice plant; details: blast curative test, 200 ppm

SMILES: Cc1cc(Sc2ccc(Cl)cc2)nc(-n2nc(C)cc2C)n1 [Compound 5]
- Degree of chemical injury [1]: 0
- Control Value [2]: 100%
- Control Value [3]: 85%
- Degree of chemical injury [4]: 0
- Control Value [5]: 100%
- Degree of chemical injury [6]: 0
- Control Value [7]: 100%
- Degree of chemical injury [8]: 0

SMILES: Cc1cc(Oc2ccccc2Cl)nc(-n2nc(C)cc2C)n1 [Compound 6]
- Degree of chemical injury [1]: 0
- Control Value [2]: 88%
- Control Value [3]: 100%
- Degree of chemical injury [4]: 0
- Control Value [5]: 100%
- Degree of chemical injury [6]: 0
- Control Value [7]: 100%
- Degree of chemical injury [8]: 0

SMILES: Cc1cc(Oc2cccc(Cl)c2)nc(-n2nc(C)cc2C)n1 [Compound 7]
- Degree of chemical injury [1]: 0
- Control Value [2]: 100%
- Control Value [3]: 100%
- Degree of chemical injury [4]: 0
- Control Value [5]: 100%
- Degree of chemical injury [6]: 0
- Control Value [7]: 100%
- Degree of chemical injury [8]: 0

SMILES: Cc1cc(Oc2ccc(F)cc2)nc(-n2nc(C)cc2C)n1 [Compound 9]
- Degree of chemical injury [1]: 0
- Control Value [2]: 100%
- Control Value [3]: 100%
- Degree of chemical injury [4]: 0
- Control Value [5]: 100%
- Degree of chemical injury [6]: 0
- Control Value [7]: 100%
- Degree of chemical injury [8]: 0

SMILES: Cc1cc(Oc2ccccc2C)nc(-n2nc(C)cc2C)n1 [Compound 11]
- Degree of chemical injury [1]: 0
- Control Value [2]: 100%
- Control Value [3]: 90%
- Degree of chemical injury [4]: 0
- Control Value [5]: 100%
- Degree of chemical injury [6]: 0
- Control Value [7]: 100%
- Degree of chemical injury [8]: 0

SMILES: Cc1cccc(Oc2cc(C)nc(-n3nc(C)cc3C)n2)c1 [Compound 12]
- Degree of chemical injury [1]: 0
- Control Value [2]: 100%
- Control Value [3]: 100%
- Degree of chemical injury [4]: 0
- Control Value [5]: 100%
- Degree of chemical injury [6]: 0
- Control Value [7]: 100%
- Degree of chemical injury [8]: 0

SMILES: Cc1ccc(Oc2cc(C)nc(-n3nc(C)cc3C)n2)cc1 [Compound 13]
- Degree of chemical injury [1]: 0
- Control Value [2]: 100%
- Control Value [3]: 100%
- Degree of chemical injury [4]: 0
- Control Value [5]: 100%
- Degree of chemical injury [6]: 0
- Control Value [7]: 100%
- Degree of chemical injury [8]: 0

SMILES: Cc1cc(Oc2ccc(C(C)C)cc2)nc(-n2nc(C)cc2C)n1 [Compound 14]
- Degree of chemical injury [1]: 0
- Control Value [2]: 92%
- Control Value [3]: 100%
- Degree of chemical injury [4]: 0
- Control Value [5]: 100%
- Degree of chemical injury [6]: 0
- Control Value [7]: 94%
- Degree of chemical injury [8]: 0

SMILES: Cc1cc(Oc2ccc(C(C)(C)C)cc2)nc(-n2nc(C)cc2C)n1 [Compound 15]
- Degree of chemical injury [1]: 0
- Control Value [2]: 100%
- Control Value [3]: 91%
- Degree of chemical injury [4]: 0
- Control Value [5]: 100%
- Degree of chemical injury [6]: 0
- Control Value [7]: 81%
- Degree of chemical injury [8]: 0

SMILES: COc1ccc(Oc2cc(C)nc(-n3nc(C)cc3C)n2)cc1 [Compound 17]
- Degree of chemical injury [1]: 0
- Control Value [2]: 100%
- Control Value [3]: 100%
- Degree of chemical injury [4]: 0
- Control Value [5]: 100%
- Degree of chemical injury [6]: 0
- Control Value [7]: 100%
- Degree of chemical injury [8]: 0

SMILES: Cc1cc(Oc2ccc(Cl)cc2Cl)nc(-n2nc(C)cc2C)n1 [Compound 23]
- Degree of chemical injury [1]: 0
- Control Value [2]: 86%
- Control Value [3]: 82%
- Degree of chemical injury [4]: 0
- Control Value [5]: 100%
- Degree of chemical injury [6]: 0
- Control Value [7]: 84%
- Degree of chemical injury [8]: 0

SMILES: Cc1ccc(C)c(Oc2cc(C)nc(-n3nc(C)cc3C)n2)c1 [Compound 28]
- Degree of chemical injury [1]: 0
- Control Value [2]: 98%
- Control Value [3]: 100%
- Degree of chemical injury [4]: 0
- Control Value [5]: 100%
- Degree of chemical injury [6]: 0
- Control Value [7]: 100%
- Degree of chemical injury [8]: 0

SMILES: Cc1cc(C)cc(Oc2cc(C)nc(-n3nc(C)cc3C)n2)c1 [Compound 29]
- Degree of chemical injury [1]: 0
- Control Value [2]: 100%
- Control Value [3]: 100%
- Degree of chemical injury [4]: 0
- Control Value [5]: 100%
- Degree of chemical injury [6]: 0
- Control Value [7]: 100%
- Degree of chemical injury [8]: 0

SMILES: Cc1cc(C)c(C)c(Oc2cc(C)nc(-n3nc(C)cc3C)n2)c1 [Compound 30]
- Degree of chemical injury [1]: 0
- Control Value [2]: 100%
- Control Value [3]: 92%
- Degree of chemical injury [4]: 0
- Control Value [5]: 100%
- Degree of chemical injury [6]: 0
- Control Value [7]: 87%
- Degree of chemical injury [8]: 0

SMILES: CCSc1nc(-n2nc(C)cc2C)ncc1C [Compound 33]
- Degree of chemical injury [1]: 0
- Control Value [2]: 82%
- Control Value [3]: 94%
- Degree of chemical injury [4]: 0
- Control Value [5]: 100%
- Degree of chemical injury [6]: 0
- Control Value [7]: 82%
- Degree of chemical injury [8]: 0

SMILES: Cc1cc(C)n(-c2ncc(C)c(Oc3ccccc3)n2)n1 [Compound 34]
- Degree of chemical injury [1]: 0
- Control Value [2]: 100%
- Control Value [3]: 100%
- Degree of chemical injury [4]: 0
- Control Value [5]: 92%
- Degree of chemical injury [6]: 0
- Control Value [7]: 98%
- Degree of chemical injury [8]: 0

SMILES: CCOc1nc(-n2nc(C)cc2C)nc(C)c1C [Compound 36]
- Degree of chemical injury [1]: 0
- Control Value [2]: 99%
- Control Value [3]: 93%
- Degree of chemical injury [4]: 0
- Control Value [5]: 100%
- Degree of chemical injury [6]: 0
- Control Value [7]: 100%
- Degree of chemical injury [8]: 9

SMILES: CCSc1nc(-n2nc(C)cc2C)nc(C)c1C [Compound 37]
- Degree of chemical injury [1]: 0
- Control Value [2]: 81%
- Control Value [3]: 100%
- Degree of chemical injury [4]: 0
- Control Value [5]: 100%
- Degree of chemical injury [6]: 0
- Control Value [7]: 93%
- Degree of chemical injury [8]: 0

SMILES: Cc1cc(C)n(-c2nc(C)c(C)c(Sc3ccccc3)n2)n1 [Compound 39]
- Degree of chemical injury [1]: 0
- Control Value [2]: 100%
- Control Value [3]: 100%
- Degree of chemical injury [4]: 0
- Control Value [5]: 100%
- Degree of chemical injury [6]: 0
- Control Value [7]: 78%
- Degree of chemical injury [8]: 0

SMILES: CCCc1c(C)nc(-n2nc(C)cc2C)nc1OC [Compound 40]
- Degree of chemical injury [1]: 0
- Control Value [2]: 100%
- Control Value [3]: 97%
- Degree of chemical injury [4]: 0
- Control Value [5]: 100%
- Degree of chemical injury [6]: 0
- Control Value [7]: 81%
- Degree of chemical injury [8]: 0

SMILES: CCCCc1c(C)nc(-n2nc(C)cc2C)nc1Oc1ccccc1 [Compound 43]
- Degree of chemical injury [1]: 0
- Control Value [2]: 86%
- Control Value [3]: 82%
- Degree of chemical injury [4]: 0
- Control Value [5]: 100%
- Degree of chemical injury [6]: 0
- Control Value [7]: 94%
- Degree of chemical injury [8]: 0

SMILES: CCCCc1c(C)nc(-n2nc(C)cc2C)nc1Sc1ccccc1 [Compound 44]
- Degree of chemical injury [1]: 0
- Control Value [2]: 92%
- Control Value [3]: 94%
- Degree of chemical injury [4]: 0
- Control Value [5]: 100%
- Degree of chemical injury [6]: 0
- Control Value [7]: 91%
- Degree of chemical injury [8]: 0

SMILES: CCCCCCc1cc(SCC)nc(-n2nc(C)cc2C)n1 [Compound 45]
- Degree of chemical injury [1]: 0
- Control Value [2]: 90%
- Control Value [3]: 91%
- Degree of chemical injury [4]: 0
- Control Value [5]: 92%
- Degree of chemical injury [6]: 0
- Control Value [7]: 88%
- Degree of chemical injury [8]: 0

SMILES: CCCCCCc1cc(Sc2ccccc2)nc(-n2nc(C)cc2C)n1 [Compound 46]
- Degree of chemical injury [1]: 0
- Control Value [2]: 99%
- Control Value [3]: 83%
- Degree of chemical injury [4]: 0
- Control Value [5]: 84%
- Degree of chemical injury [6]: 0
- Control Value [7]: 99%
- Degree of chemical injury [8]: 0

SMILES: CCCCCCc1cc(Oc2ccc(Cl)cc2)nc(-n2nc(C)cc2C)n1 [Compound 47]
- Degree of chemical injury [1]: 0
- Control Value [2]: 100%
- Control Value [3]: 79%
- Degree of chemical injury [4]: 0
- Control Value [5]: 100%
- Degree of chemical injury [6]: 0
- Control Value [7]: 90%
- Degree of chemical injury [8]: 0
